Test results from US4923868A, “8-fluoro and 7,8,10-trifluoro-9-(substituted)-6-oxo-6H-benzo(C)quinolizine-5-carboxyl ic acids” (American Cyanamid Company, priority 1989, dated 1990).
Values after ≈ are worked out from the molar mass of the structure shown. Read-outs that look alike come from different tables or passages of the source.

Assays:
Assay in all cases: In vitro antibacterial spectrum, agar plate dilution (MIC)
Type in all cases: cell-based
Serratia marcescens = conditions: 18 h, 10^4 CFU, 35° C
Experimental: (§1) The in vitro antimicrobial spectrum of the compounds of the invention were determined by the agar plate dilution method with Mueller-Hinton agar and an inoculum of each test organism of approximately 10^4 colony forming units delivered by the Steers replicating device. The minimal inhibitory concentration (MIC) in mcg/ml is defined as the lowest concentration of test compound that inhibited visible growth after 18 hours incubation at 35° C.

Providencia stuartii = Providencia stuartii CMC 83-3; Mueller-Hinton agar, 10^4 CFU, 18 h, 35° C
Experimental: as §1

Klebsiella nneumoniae = conditions: Mueller-Hinton agar, 10^4 CFU, 18 h, 35° C
Experimental: as §1

Morganella morganii = conditions: 18 h, 10^4 CFU, 35° C
Experimental: as §1

Streptococcus faecalis = conditions: Mueller-Hinton agar, 10^4 CFU, 18 h, 35° C
Experimental: as §1

Proteus rettgeri = conditions: Providencia rettgeri; Proteus rettgeri IO 83-21; Mueller-Hinton agar, 10^4 CFU, 18 h, 35° C
Experimental: as §1

Enterobacter cloacae = conditions: 18 h, 10^4 CFU, 35° C
Experimental: as §1

Escherichia coli = conditions: 10^4 CFU, 35° C
Experimental: as §1

Pseudomonas aeruginosa = conditions: Mueller-Hinton agar, 10^4 CFU, 18 h, 35° C
Experimental: as §1

Staphylococcus aureus = conditions: Mueller-Hinton agar, 10^4 CFU, 18 h, 35° C
Experimental: as §1

Citrobacter diversus = conditions: Citrobacter koseri; Citrobacter diversus K 82-24; Mueller-Hinton agar, 10^4 CFU, 18 h, 35° C
Experimental: as §1

Structure (SMILES): CN1CCN(c2cc3c(cc2F)c(=O)c(C(=O)O)c2ccccn23)CC1 [Example 6, 8-Fluoro-9-(4-methyl-1-piperazinyl)-6-oxo-6H-benzo[c]quinolizine-5-carboxylic acid]
- MIC (Serratia marcescens; Serratia marcescens CMC 83-74, Mueller-Hinton agar): > 16 µg/mL
- MIC (Serratia marcescens; Serratia marcescens IO 83-63, Mueller-Hinton agar): 4 µg/mL (≈ 11.3 µM)
- MIC (Serratia marcescens; Serratia marcescens MOR 84-41, Mueller-Hinton agar): 2 µg/mL (≈ 5.63 µM)
- MIC (Providencia stuartii): > 16 µg/mL
- MIC (Klebsiella nneumoniae; Klebsiella nneumoniae IO 83-5): 8 µg/mL (≈ 22.5 µM)
- MIC (Klebsiella nneumoniae; Klebsiella nneumoniae MOR 84-24, read-out: MIC): 8 µg/mL (≈ 22.5 µM)
- MIC (Klebsiella nneumoniae; Klebsiella oneumoniae CMC 84-31): 8 µg/mL (≈ 22.5 µM)
- MIC (Morganella morganii; Morganella morganii CMC 84-38, Mueller-Hinton agar): 0.5 µg/mL (≈ 1.41 µM)
- MIC (Morganella morganii; Morganella morganii VGH 84-12, Mueller-Hinton agar): 4 µg/mL (≈ 11.3 µM)
- MIC (Morganella morganii; Moroanella morganii MOR 84-45, Mueller-Hinton agar): 0.5 µg/mL (≈ 1.41 µM)
- MIC (Streptococcus faecalis; Enterococcus faecalis, Streptococcus faecalis VCI 85-30, read-out: MIC): > 16 µg/mL
- MIC (Streptococcus faecalis; Streptococcus faecalis CMC 83-120): > 16 µg/mL
- MIC (Streptococcus faecalis; Streptococcus faecalis VGH 84-69): > 16 µg/mL
- MIC (Proteus rettgeri): 1 µg/mL (≈ 2.81 µM)
- MIC (Enterobacter cloacae; Enterobacter cloacae K 84-10, Mueller-Hinton agar): 2 µg/mL (≈ 5.63 µM)
- MIC (Enterobacter cloacae; Enterobacter cloacae MOR 84-30, Mueller-Hinton agar): 16 µg/mL (≈ 45 µM)
- MIC (Enterobacter cloacae; Enterobacter cloacae VGH 84-39, Mueller-Hinton agar): 2 µg/mL (≈ 5.63 µM)
- MIC (Escherichia coli; 18 h, Escherichia coli CMC 84-50, Mueller-Hinton agar): 2 µg/mL (≈ 5.63 µM)
- MIC (Escherichia coli; 18 h, Escherichia coli D 21, Mueller-Hinton agar): 4 µg/mL (≈ 11.3 µM)
- MIC (Escherichia coli; 18 h, Escherichia coli D 22, Mueller-Hinton agar): 2 µg/mL (≈ 5.63 µM)
- MIC (Escherichia coli; 18 h, Escherichia coli MOR 84-20, Mueller-Hinton agar): 2 µg/mL (≈ 5.63 µM)
- MIC (Escherichia coli; 18 h, Escherichia coli VGH 84-19, Mueller-Hinton agar): 4 µg/mL (≈ 11.3 µM)
- MIC (Escherichia coli; ATCC25922, 18 h, Escherichia coli ATCC 25922, Mueller-Hinton agar): 4 µg/mL (≈ 11.3 µM)
- MIC (Pseudomonas aeruginosa; Pseudomonas aeruginosa CMC 83-20): > 16 µg/mL
- MIC (Pseudomonas aeruginosa; Pseudomonas aeruginosa K 84-16, read-out: MIC): > 16 µg/mL
- MIC (Pseudomonas aeruginosa; Pseudomonas aeruginosa VGH 84-3): > 16 µg/mL
- MIC (Staphylococcus aureus; ATCC25913, Staphylococcus aureus ATCC 25913, read-out: MIC): > 16 µg/mL
- MIC (Staphylococcus aureus; Staphylococcus aureus CMC 83-131): > 16 µg/mL
- MIC (Staphylococcus aureus; Staphylococcus aureus K 82-26): > 16 µg/mL
- MIC (Staphylococcus aureus; Staphylococcus aureus VGH 84-47, read-out: MIC): > 16 µg/mL
- MIC (Citrobacter diversus): 4 µg/mL (≈ 11.3 µM)
